Read-outs that look alike come from different tables or passages of the source.
Assays:
[1] = tested on: Mycosphaerella graminicola; Anamorph: Septoria tritici; experiment: Leaf Blotch of Wheat (SEPTTR) disease control; type: in vivo; conditions: Zymoseptoria tritici; for pest or weed control at 100 ppm: rate 100 ppm
Outline: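 Wheat seedlings (Yuma, first leaf emerged) were sprayed to run-off with compound in acetone/water (1:9, 110 ppm Triton X-100) and inoculated with Septoria tritici spores before or after treatment. Disease severity (0–100%) was scored once untreated first leaves were fully symptomatic; control was calculated relative to untreated plants.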

[2] = tested on: Puccinia triticina; Synonym: Puccinia recondite f. Sp. Tritici; experiment: Wheat Brown Rust (PUCCRT) disease control; type: in vivo; conditions: Puccinia triticina, topical; for pest or weed control at 100 ppm: rate 100 ppm
Outline: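 Brown rust on first-leaf Yuma wheat: spore inoculation before or after spray application (acetone/Triton X-100 solution, or EC with Trycol in track spray), overnight 100% RH at 22 °C, disease developed at 24 °C. Severity scored 0–100% and converted to percent control against untreated.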

[3] = 24 h, 1 Day Protectant, read-out: SEPTTR 1 DP disease control
[4] = 24 h, 1 Day Protectant, rate 121.5 g/H, read-out: SEPTTR 1 DP disease control
[5] = 72 h, 3 Day Curative, read-out: SEPTTR 3 DC disease control
[6] = 72 h, 3 Day Curative, rate 121.5 g/H, read-out: SEPTTR 3 DC disease control
[7] = 24 h, 1 Day Protectant, read-out: PUCCRT 1 DP disease control
[8] = 24 h, 1 Day Protectant, rate 121.5 g/H, read-out: PUCCRT 1 DP disease control
[9] = 72 h, 3 Day Curative, read-out: PUCCRT 3 DC disease control
[10] = 72 h, 3 Day Curative, rate 121.5 g/H, read-out: PUCCRT 3 DC disease control

SMILES | pest or weed control at 100 ppm [1, 3] [%] | pest or weed control at 121.5 g/ha [1, 4] [%] | pest or weed control at 100 ppm [1, 5] [%] | pest or weed control at 121.5 g/ha [1, 6] [%] | pest or weed control at 100 ppm [2, 7] [%] | pest or weed control at 121.5 g/ha [2, 8] [%] | pest or weed control at 100 ppm [2, 9] [%] | pest or weed control at 121.5 g/ha [2, 10] [%] | pest or weed control at 121.5 g/ha ([1]; 24 h, Wheat Leaf Blotch, 1 Day Protectant, rate 121.5 g/H (low volume application), read-out: Disease control SEPTTR 1 DP) [%] | pest or weed control at 121.5 g/ha ([1]; 72 h, Wheat Leaf Blotch, 3 Day Curative, rate 121.5 g/H (low volume application), read-out: Disease control SEPTTR 3 DC) [%] | pest or weed control at 121.5 g/ha ([2]; 24 h, Wheat Brown Rust, 1 Day Protectant, rate 121.5 g/H (low volume application), read-out: Disease control PUCCRT 1 DP) [%] | pest or weed control at 121.5 g/ha ([2]; 72 h, Wheat Brown Rust, 3 Day Curative, rate 121.5 g/H (low volume application), read-out: Disease control PUCCRT 3 DC) [%]
COc1ccnc(C(=O)N[C@H]2CCC[C@H](CC3CCCC3)[C@@H](OCC3CC3)[C@H](C)OC2=O)c1OCOC(=O)C(C)C [Compound F154, ((2-(((3S,7R,8R,9S)-7-(cyclopentylmethyl)-8-(cyclopropylmethoxy)-9-methyl-2-oxooxonan-3-yl)carbamoyl)-4-methoxypyridin-3-yl)oxy)methyl isobutyrate] | 80 to 100 | 80 to 100 | 80 to 100 | 80 to 100 | 80 to 100 | 80 to 100 | 80 to 100 | 80 to 100 | – | – | – | –
COc1ccnc(C(=O)N[C@H]2CCC[C@H](Cc3ccco3)[C@@H](OCC(C)C)[C@H](C)OC2=O)c1OCOC(C)=O [Compound F120] | – | 80 to 100 | – | 0 to 80 | – | 80 to 100 | – | – | – | – | – | –
COc1ccnc(C(=O)N[C@H]2CCC[C@H](CCC(C)C)[C@@H](Oc3ccccc3)[C@H](C)OC2=O)c1OCOC(C)=O [Compound F89] | 80 to 100 | 80 to 100 | 80 to 100 | 80 to 100 | 80 to 100 | 80 to 100 | 80 to 100 | 0 to 80 | – | – | – | –
COc1ccnc(C(=O)N[C@H]2CCC[C@H](CCC(C)C)[C@@H](OCCCC(F)(F)F)[C@H](C)OC2=O)c1O [Compound F5] | 80 to 100 | – | 80 to 100 | – | 80 to 100 | – | 0 to 80 | – | – | – | – | –
COc1ccnc(C(=O)N[C@H]2CCC[C@H](Cc3ccccc3)[C@@H](OCC(C)C)[C@H](C)OC2=O)c1O [Compound F18] | 80 to 100 | – | 80 to 100 | – | 80 to 100 | – | 0 to 80 | – | – | – | – | –
CCOCC(=O)Oc1c(OC)ccnc1C(=O)N[C@H]1CCC[C@H](CCOc2ccccc2)[C@@H](Oc2ccccc2)[C@H](C)OC1=O [Compound F185] | 80 to 100 | – | 80 to 100 | – | 80 to 100 | – | 80 to 100 | – | – | – | – | –
COc1ccc(C[C@H]2CCC[C@H](NC(=O)c3nccc(OC)c3OCOC(C)=O)C(=O)O[C@@H](C)[C@@H]2OCC2CC2)cc1 [Compound F116] | 80 to 100 | 80 to 100 | 80 to 100 | 80 to 100 | 80 to 100 | 80 to 100 | 80 to 100 | 80 to 100 | – | – | – | –
CCCO[C@@H]1[C@@H](Cc2ccc(F)cc2)CCC[C@H](NC(=O)c2nccc(OC)c2O)C(=O)O[C@H]1C [Compound F13] | 80 to 100 | – | 80 to 100 | – | – | – | 0 to 80 | – | – | – | – | –
COc1ccnc(C(=O)N[C@H]2CCC[C@H](CC3CCCC3)[C@@H](OCC3CC3)[C@H](C)OC2=O)c1O [Compound F31] | 80 to 100 | – | 80 to 100 | – | 80 to 100 | – | 80 to 100 | – | – | – | – | –
CCOCC(=O)OCOc1c(OC)ccnc1C(=O)N[C@H]1CCC[C@H](CCC(C)C)[C@@H](Oc2ccccc2)[C@H](C)OC1=O [Compound F158] | 80 to 100 | 80 to 100 | 80 to 100 | 80 to 100 | 80 to 100 | 80 to 100 | 80 to 100 | 0 to 80 | – | – | – | –
COc1ccnc(C(=O)N[C@H]2CCC[C@H](CCC(C)C)[C@@H](Oc3ccccc3)[C@H](C)OC2=O)c1O [Compound F1] | 80 to 100 | – | 80 to 100 | – | 80 to 100 | – | 0 to 80 | – | – | – | – | –
CCCO[C@@H]1[C@@H](CC2CCCC2)CCC[C@H](NC(=O)c2nccc(OC)c2O)C(=O)O[C@H]1C [Compound F36] | 80 to 100 | – | – | – | 80 to 100 | – | – | – | – | – | – | –
COc1ccnc(C(=O)N[C@H]2CCC[C@H](CCOCC3CC3)[C@@H](OCC3CC3)[C@H](C)OC2=O)c1OCOC(=O)C(C)C [Compound F156] | 0 to 80 | 0 to 80 | 0 to 80 | 0 to 80 | 80 to 100 | 80 to 100 | 80 to 100 | 80 to 100 | – | – | – | –
COc1ccnc(C(=O)N[C@H]2CCC[C@H](CCC(C)C)[C@@H](Oc3ccccc3)[C@H](C)OC2=O)c1OC(C)=O [Compound F62] | 80 to 100 | 80 to 100 | 80 to 100 | 80 to 100 | 80 to 100 | 80 to 100 | 80 to 100 | 0 to 80 | – | – | – | –
CCO[C@@H]1[C@@H](Cc2ccccc2)CCC[C@H](NC(=O)c2nccc(OC)c2OC(=O)CCOC)C(=O)O[C@H]1C [Compound F197] | – | – | – | – | – | – | – | – | 80 to 100 | 80 to 100 | 80 to 100 | 80 to 100
COc1ccnc(C(=O)N[C@H]2CCC[C@H](CC3CCCC3)[C@@H](Oc3ccccc3)[C@H](C)OC2=O)c1OCOC(C)=O [Compound F115] | 80 to 100 | 80 to 100 | 80 to 100 | 80 to 100 | 80 to 100 | 80 to 100 | 80 to 100 | 0 to 80 | – | – | – | –
COc1ccnc(C(=O)N[C@H]2CCC[C@H](CCC(C)C)[C@@H](OC)[C@H](C)OC2=O)c1O [Compound F7] | 80 to 100 | – | 80 to 100 | – | 80 to 100 | – | 0 to 80 | – | – | – | – | –
CCOCC(=O)OCOc1c(OC)ccnc1C(=O)N[C@H]1CCC[C@H](CC2CCCC2)[C@@H](Oc2ccccc2)[C@H](C)OC1=O [Compound F176] | 80 to 100 | 80 to 100 | 80 to 100 | 80 to 100 | 80 to 100 | 80 to 100 | 80 to 100 | 0 to 80 | – | – | – | –

Source: patent publication US9265253B2, “Use of macrocyclic picolinamides as fungicides” (DOW AGROSCIENCES LLC, priority 2013, dated 2016)
